From the supplement of paper PMC8960247 come the findings set out here.

For one experiment, the system named is 621-102 (TSC2-deficient). The experiment can be described thus: relative viability vs DMSO; higher = less cytotoxic. Conditions: serum: 10% FBS, 72 h.
The test system of another experiment is 621-103 (TSC2-rescued). Described as above. Conditions: serum: 10% FBS, 72 h.

Where a name gives a salt, the structure may show the parent alone. ± gives the standard error.
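Further: immortalized renal angiomyolipoma cells stably carrying empty vector or TSC2, dosed in 384-well plates in DMEM, viability normalized to vehicle-treated wells within each plate.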

On to `NCCc1ccc(O)c(O)c1` [Dopamine HCl], for which the relative viability stood at 97.5 ± 9.6% in the experiment on 621-102 (TSC2-deficient) (0.0001 µM); 112 ± 3.6% with 621-102 (TSC2-deficient) (0.001 µM); 107 ± 3% in the experiment on 621-102 (TSC2-deficient) (0.01 µM); 105 ± 2.4% with 621-102 (TSC2-deficient) (0.1 µM); 89.7 ± 7.8% with 621-102 (TSC2-deficient) (1 µM); 74.1 ± 1.9% in the experiment with 621-102 (TSC2-deficient) (10 µM). Besides, the relative viability in the experiment on 621-103 (TSC2-rescued) (0.0001 µM) worked out at 102.3 ± 0.35%; in the experiment with 621-103 (TSC2-rescued) (0.001 µM) it was 99.6 ± 4.5%; in the experiment on 621-103 (TSC2-rescued) (0.01 µM), 99 ± 1.9%; in the experiment on 621-103 (TSC2-rescued) (0.1 µM), 100.1 ± 1%; with 621-103 (TSC2-rescued) (1 µM), 92.8 ± 2%; in the experiment with 621-103 (TSC2-rescued) (10 µM), 95.4 ± 3.1%.
For `CCN[C@H]1C[C@H](C)S(=O)(=O)c2sc(S(N)(=O)=O)cc21` [Dorzolamide HCl], the relative viability with 621-102 (TSC2-deficient) (0.0001 µM) stood at 98.73 ± 0.8%; in the experiment with 621-102 (TSC2-deficient) (0.001 µM) it was 104.2 ± 0.95%; with 621-102 (TSC2-deficient) (0.01 µM), 108 ± 1.7%; in the experiment with 621-102 (TSC2-deficient) (0.1 µM), 106.3 ± 0.82%; in the experiment with 621-102 (TSC2-deficient) (1 µM), 96.9 ± 2.5%; with 621-102 (TSC2-deficient) (10 µM), 103 ± 3.9%. In addition, the relative viability with 621-103 (TSC2-rescued) (0.0001 µM) was 99 ± 2.7%; in the experiment with 621-103 (TSC2-rescued) (0.001 µM), 103 ± 3.2%; with 621-103 (TSC2-rescued) (0.01 µM), 103 ± 1.3%; in the experiment with 621-103 (TSC2-rescued) (0.1 µM), 103 ± 1.4%; in the experiment with 621-103 (TSC2-rescued) (1 µM), 102 ± 3.7%; with 621-103 (TSC2-rescued) (10 µM) it was 97.53 ± 0.19%.
For the compound `COc1cc2nc(N3CCN(C(=O)C4COc5ccccc5O4)CC3)nc(N)c2cc1OC` (configuration not stated) [Doxazosin mesylate], the relative viability with 621-102 (TSC2-deficient) (0.0001 µM) was determined as 101 ± 0.75%; with 621-102 (TSC2-deficient) (0.001 µM), 99.06 ± 0.17%; with 621-102 (TSC2-deficient) (0.01 µM), 102.2 ± 0.51%; in the experiment on 621-102 (TSC2-deficient) (0.1 µM), 100 ± 2.2%; in the experiment with 621-102 (TSC2-deficient) (1 µM) it was 99.87 ± 0.89%; in the experiment on 621-102 (TSC2-deficient) (10 µM), 95.9 ± 2.9%. Further, the relative viability was 98.4 ± 1.8% in the experiment with 621-103 (TSC2-rescued) (0.0001 µM); 95.8 ± 1.5% in the experiment with 621-103 (TSC2-rescued) (0.001 µM); 108 ± 2.6% with 621-103 (TSC2-rescued) (0.01 µM); 101 ± 3.2% in the experiment with 621-103 (TSC2-rescued) (0.1 µM); 100.5 ± 0.52% with 621-103 (TSC2-rescued) (1 µM); 88.314 ± 0.032% with 621-103 (TSC2-rescued) (10 µM).
For `C[C@]12C=CC(=O)N[C@@H]1CC[C@@H]1[C@@H]2CC[C@]2(C)[C@@H](C(=O)Nc3cc(C(F)(F)F)ccc3C(F)(F)F)CC[C@@H]12` [Dutasteride (Avodart)], the relative viability was determined as 118 ± 1.5% in the experiment with 621-102 (TSC2-deficient) (0.0001 µM); 116 ± 1.9% in the experiment with 621-102 (TSC2-deficient) (0.001 µM); 115 ± 2.4% in the experiment with 621-102 (TSC2-deficient) (0.01 µM); 96.4 ± 1.7% with 621-102 (TSC2-deficient) (0.1 µM); 107.7 ± 0.56% in the experiment on 621-102 (TSC2-deficient) (1 µM); 98.5 ± 2.3% in the experiment with 621-102 (TSC2-deficient) (10 µM). In addition, the relative viability was 104 ± 1.4% with 621-103 (TSC2-rescued) (0.0001 µM); 105 ± 2.2% in the experiment with 621-103 (TSC2-rescued) (0.001 µM); 100.7 ± 0.37% in the experiment with 621-103 (TSC2-rescued) (0.01 µM); 101 ± 1.4% with 621-103 (TSC2-rescued) (0.1 µM); 101 ± 1.5% in the experiment on 621-103 (TSC2-rescued) (1 µM); 94.61 ± 0.46% in the experiment on 621-103 (TSC2-rescued) (10 µM).
As for `Cc1cc(Nc2cc(N3CCN(C)CC3)nc(/C=C/c3ccccc3)n2)n[nH]1` [ENMD-2076], the relative viability was determined as 112 ± 2.8% in the experiment on 621-102 (TSC2-deficient) (0.0001 µM); 98.5 ± 1.7% in the experiment on 621-102 (TSC2-deficient) (0.001 µM); 103.4 ± 0.19% in the experiment with 621-102 (TSC2-deficient) (0.01 µM); 98.213 ± 0.069% with 621-102 (TSC2-deficient) (0.1 µM); 81.1 ± 2.8% in the experiment on 621-102 (TSC2-deficient) (1 µM); 34.56 ± 0.15% in the experiment on 621-102 (TSC2-deficient) (10 µM). Also, the relative viability with 621-103 (TSC2-rescued) (0.0001 µM) worked out at 100.4 ± 0.78%; in the experiment with 621-103 (TSC2-rescued) (0.001 µM) it was 100.9 ± 0.97%; in the experiment with 621-103 (TSC2-rescued) (0.01 µM), 104 ± 1.5%; in the experiment with 621-103 (TSC2-rescued) (0.1 µM), 102 ± 2.1%; with 621-103 (TSC2-rescued) (1 µM), 73 ± 2.3%; in the experiment on 621-103 (TSC2-rescued) (10 µM), 12.7 ± 0.4%.
Take `COc1cc2c(cc1Cc1cccc(Cl)c1F)c(=O)c(C(=O)O)cn2[C@H](CO)C(C)C` [Elvitegravir]: the relative viability with 621-102 (TSC2-deficient) (0.0001 µM) was determined as 96.63 ± 0.78%; with 621-102 (TSC2-deficient) (0.001 µM) it was 107.1 ± 0.31%; in the experiment with 621-102 (TSC2-deficient) (0.01 µM), 105 ± 3.3%; in the experiment on 621-102 (TSC2-deficient) (0.1 µM), 106 ± 1.4%; in the experiment with 621-102 (TSC2-deficient) (1 µM), 110 ± 3%; with 621-102 (TSC2-deficient) (10 µM), 99.7 ± 3.7%. The relative viability came to 101 ± 1.1% in the experiment with 621-103 (TSC2-rescued) (0.0001 µM); 102 ± 1.9% in the experiment on 621-103 (TSC2-rescued) (0.001 µM); 98.96 ± 0.48% in the experiment on 621-103 (TSC2-rescued) (0.01 µM); 98.96 ± 0.9% in the experiment on 621-103 (TSC2-rescued) (0.1 µM); 101.1 ± 1% with 621-103 (TSC2-rescued) (1 µM); 99.17 ± 0.59% in the experiment on 621-103 (TSC2-rescued) (10 µM).
